Experimental data reported in US9481648B2, “Kinase inhibitors” (Respivert Limited, priority 2013, dated 2016).
Like-named read-outs stand apart in the source and are kept apart here.

Key:
[1] = target: p38 MAPKα (MAPK14) (Homo sapiens (Human), UniProt Q16539); experiment: p38 MAPKα enzyme inhibition (FRET, Z-LYTE; Method 2); format: biochemical
[2] = Plasma pharmacokinetics in rats, single intravenous or oral administration; format: in vivo, rat (male Wistar); details: for C0: intravenous 0.25 mg/kg in 5% DMSO-7.5% Solutol HS15-87.5% normal saline; for Vd: read-out: Vss; for Fpo: oral 5 mg/kg, vehicle C (Example 4) or B
Experimental: Studies were conducted by Sai Life Sciences (Hinjewadi, Pune, India) to investigate the plasma pharmacokinetics and total colon tissue distribution of compounds of the invention. In particular, pharmacokinetic studies were carried out in: • male C57BL/6 mice, following a single oral administration; and • male Wistar rats following a single intravenous or oral administration.

[3] = test system: TNBS-induced colitis in BDF1 mice; experiment: TNBS-induced colitis in mice (in vivo iv); set-up: species or system mouse; details: for inflammatory cell infiltrate in the reticular and laminar propria zones / ulcer grade and epithelial repair compared to the vehicle control: 5 mg/kg orally, 2 days; for inflammatory cell infiltrate in the reticular and laminar propria zones / ulcer grade and epithelial repair compared to the vehicle control / activity in in vivo model of colonic inflammation (histopathology analysis): TNBS-induced colitis, mice; for LP inflammation / Ulcer grade: TNBS-induced colitis in mice, 5 mg/kg oral; for activity in in vivo model of colonic inflammation (histopathology analysis): conducted over 2 days
Experimental: Non-fasted, 10-12 week old, male BDF1 mice are dosed by oral gavage twice daily with either vehicle (5 mL/kg), reference item (Budesonide 2.5 mg/kg) or test compound (1 or 5 mg/kg) one day before (Day −1) stimulation of the inflammatory response by treatment with 2,4,6-trinitrobenzenesulphonic acid (TNBS) (15 mg/mL in 50% ethanol/50% saline). On Day 0 of the study TNBS (200 μL) is administered intra-colonically via a plastic catheter with BID dosing of the vehicle, reference or test compound continuing for 2 or 4 days. During the study, animals are weighed every day and stool observations are made and recorded as a score, based on stool consistency. At the time of sacrifice on Day 2 (or Day 4), the large intestine is removed and the length and weight recorded. Sections of the colon are taken for histopathology scoring to determine disease severity.

[4] = test system: adoptive transfer (CD45RBhigh cells) colitis in SCID mice; experiment: Adoptive transfer in mice (in vivo v); set-up: species or system mouse; details: adoptive transfer mouse model
Experimental: On Study day 0, female Balb/C mice are terminated and spleens obtained for CD45RB^high cell isolation (Using SCID IBD cell Separation protocol). Approximately 4×10^5 cells/mL CD45RB^high cells are then injected intraperitoneally (100 μL/mouse) into female SCID animals. On study day 14, mice are weighed and randomized into treatment groups based on body weight. On Day 14, compounds are administered BID, via oral gavage, in a peanut oil vehicle at the dose levels outlined below in Tables 6a and 6b and a dose volume of 5 mL/kg. Treatment continues until study day 42, at which point the animals are necropsied 4 hours after the morning administration. The colon length and weight are recorded and used as a secondary endpoint in the study as a measurement of colon oedema. The colon is then divided into six cross-sections, four of which are used for histopathology scoring (primary endpoint) and two are homogenised for cytokine analysis. Data shown is the % inhibition of the induction window between naïve animals and vehicle animals, where higher inhibition implies closer to the non-diseased, naïve, phenotype.

[5] = target: CYP3A4 (Homo sapiens (Human), UniProt P08684); experiment: CYP3A4 inhibition study; format: in vitro ADME; details: for inhibition at 15 µM: human, read-out: 15 μM % Inh
Experimental: Assessment of certain in vitro ADME (absorption, distribution, metabolism, and excretion) parameters for certain compounds of the invention was conducted by BioFocus (Saffron Walden, UK).

[6] = test system: non-mutant kinases; format: binding; details: for KinomeScan Selectivity Score S(10): (number of non-mutant kinases with % Ctrl <10)/(number of non-mutant kinases tested); for KinomeScan Selectivity Score S(35): (number of non-mutant kinases with % Ctrl <35)/(number of non-mutant kinases tested); for number of individual kinase hits, S(1): non-mutant kinases with % Ctrl <1; for number of individual kinase hits, S(10): non-mutant kinases with % Ctrl <10; for number of individual kinase hits, S(35): non-mutant kinases with % Ctrl <35; for KinomeScan Selectivity Score S(1): (number of non-mutant kinases with % Ctrl <1)/(number of non-mutant kinases tested); for selectivity compared to the Reference Compound: as evidenced by lower selectivity scores
Experimental: These assays may be conducted by DiscoverX (formerly Ambit; San Diego, Calif.). The percentage inhibition produced by incubation with a test compound may be calculated relative to the non-inhibited control.

[7] = test system: Salmonella typhimurium strain TA100; experiment: Mutagenicity assessment (bacterial reverse mutation screen); format: cell-based; details: strain TA100, presence or absence of S-9 mix, up to 1000 μg/plate analysable
Experimental: (§1) Studies were conducted by Sequani (Ledbury, Herefordshire, UK) to assess compounds of the invention for their ability to induce mutations in two histidine dependent auxotrophic mutants of Salmonella typhimurium, strains TA98 and TA100 in vitro.
(§2) The mutation screen was conducted using the plate incorporation method and was performed in both the presence and absence of S-9 mix (a liver post-mitochondrial fraction derived from the livers of Aroclor 1254 treated rats). The bacteria were exposed to test compounds dissolved in dimethylsulphoxide, which solvent was also used as the negative control. The dose levels used were 0.32, 1.6, 8, 40, 200, 1000 or 5000 μg/plate.
(§3) Precipitation was also noted in both strains at 1000 μg/plate in the presence and absence of S-9 mix.

[8] = test system: Salmonella typhimurium strain TA98; experiment: as above; format: cell-based; details: strain TA98, presence or absence of S-9 mix, up to 1000 μg/plate analysable
Experimental: as §1, §2, §3

[9] = male, Wistar, rat, plasma, rats, intravenous 0.25 mg/kg
[10] = male, Wistar, rat, plasma, rats
[11] = male, Wistar, rat, plasma, po, 5 mg/kg
[12] = male, Wistar, rat, plasma, po, 5 mg/kg, read-out: Median plasma concentration

Sequence of CYP3A4 (P08684 whole entry): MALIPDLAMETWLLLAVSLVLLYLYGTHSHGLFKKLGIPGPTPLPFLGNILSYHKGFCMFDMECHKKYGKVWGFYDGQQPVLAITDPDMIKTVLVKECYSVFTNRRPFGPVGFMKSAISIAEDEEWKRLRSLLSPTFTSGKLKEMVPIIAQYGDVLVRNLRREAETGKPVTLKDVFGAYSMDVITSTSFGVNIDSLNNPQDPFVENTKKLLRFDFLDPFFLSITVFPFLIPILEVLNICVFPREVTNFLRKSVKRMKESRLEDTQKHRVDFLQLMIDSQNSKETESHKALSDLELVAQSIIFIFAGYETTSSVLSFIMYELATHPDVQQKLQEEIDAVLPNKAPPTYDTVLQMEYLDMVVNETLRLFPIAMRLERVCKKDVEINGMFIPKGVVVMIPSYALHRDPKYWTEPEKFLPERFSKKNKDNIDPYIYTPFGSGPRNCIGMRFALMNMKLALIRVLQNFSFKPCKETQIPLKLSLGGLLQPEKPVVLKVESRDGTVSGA
Sequence of p38 MAPKα (MAPK14) (Q16539 whole entry): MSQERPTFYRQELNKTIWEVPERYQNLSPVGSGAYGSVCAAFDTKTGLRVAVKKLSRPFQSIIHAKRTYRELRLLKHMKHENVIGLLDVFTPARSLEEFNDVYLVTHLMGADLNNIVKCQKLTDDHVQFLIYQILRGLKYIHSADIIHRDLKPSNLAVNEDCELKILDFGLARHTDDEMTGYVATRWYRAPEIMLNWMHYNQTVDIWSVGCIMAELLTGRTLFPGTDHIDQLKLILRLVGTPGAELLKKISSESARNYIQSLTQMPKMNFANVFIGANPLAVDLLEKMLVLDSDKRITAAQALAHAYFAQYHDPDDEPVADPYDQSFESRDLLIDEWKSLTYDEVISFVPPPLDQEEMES

With `COCCOCCOCCNC(=O)c1cc(Nc2cc(Oc3ccc(NC(=O)Nc4cc(C(C)(C)C)cc(NS(C)(=O)=O)c4OC)c4ccccc34)ccn2)cc(OC)c1` [Example 3, 3-((4-((4-(3-(5-(tert-Butyl)-2-methoxy-3-(methylsulfonamido)phenyl)ureido)naphthalen-1-yl)oxy)pyridin-2-yl)amino)-5-methoxy-N-(2-(2-(2-methoxyethoxy)ethoxy)ethyl)benzamide] the IC50 [1] was 0.087 µM, the AUC(0-inf) [2, 9] was 821 ng·h/mL and the AUC(0-t) [2, 9] was 820 ng·h/mL. For the same compound, the half-life [2, 9] was 0.2 h, the C0 [2, 10] was 4380 ng/mL and the Vd [2, 9] was 0.1 L/kg. The CI ([2]; rats, intravenous 0.25 mg/kg) was 5.1 mL/min/kg, the Fpo ([2]; rats) was 0.0% and the “inflammatory cell infiltrate in the reticular and laminar propria zones” value [3] was “marked reduction”. The “ulcer grade and epithelial repair compared to the vehicle control” value [3] was “marked improvements”, the LP inflammation [3] was 3.8 ± 0.5 and the Ulcer grade [3] was 3.7 ± 0.4. The “activity in in vivo model of colonic inflammation (histopathology analysis)” value [3] was “substantial activity”, the “activity in T cell driven in vivo model of colonic inflammation (relative ratios of colon weight to length)” value [4] was “significant activity” and the “Colon weight:length” value ([4]; 3 mg/kg BID oral) was 0.039 ± 0.003. The IC50 ([5]; CYP3A4, 0 min preincubation) was > 15 µM, the IC50 ([5]; CYP3A4, 30 min preincubation) was > 15 µM and the inhibition at 15 µM ([5]; CYP3A4, 0 min preincubation) was 22%. For the same compound, the inhibition at 15 µM ([5]; CYP3A4, 30 min preincubation) was 51%, the “KinomeScan Selectivity Score S(10)” value ([6]; 50 nM) was 0.023 and the “KinomeScan Selectivity Score S(35)” value ([6]; 50 nM) was 0.091. The “number of individual kinase hits, S(1)” value ([6]; 50 nM) was 0, the “number of individual kinase hits, S(10)” value ([6]; 50 nM) was 9 and the “number of individual kinase hits, S(35)” value ([6]; 50 nM) was 36. For the same compound, the “KinomeScan Selectivity Score S(1)” value ([6]; 500 nM) was 0.046, the “KinomeScan Selectivity Score S(10)” value ([6]; 500 nM) was 0.149 and the “KinomeScan Selectivity Score S(35)” value ([6]; 500 nM) was 0.235. For the same compound, the “number of individual kinase hits, S(1)” value ([6]; 500 nM) was 18, the “number of individual kinase hits, S(10)” value ([6]; 500 nM) was 59 and the “number of individual kinase hits, S(35)” value ([6]; 500 nM) was 93. For the same compound, the “selectivity compared to the Reference Compound” value [6] was “substantially improved selectivities”.
With `COc1c(NC(=O)Nc2ccc(Oc3ccnc(Nc4ccccc4)c3)c3ccccc23)cc(C(C)(C)C)cc1C(=O)NC1COC1` [Example 75, 5-(tert-Butyl)-2-methoxy-N-(oxetan-3-yl)-3-(3-(4-((2-(phenylamino)pyridin-4-yl)oxy)-naphthalen-1-yl)ureido)benzamide] the “increases in revertant colonies” value [7] was “no dose-related or statistically significant increases”, the “increases in revertant colonies” value [8] was “no dose-related or statistically significant increases” and the IC50 [1] was 0.123 µM. For the same compound, the AUC(0-t) [2, 11] was 26.6 ng·h/mL, the Cmax [2, 11] was 3.8 ng/mL and the Tmax [2, 11] was 5.3 h. It also gave a concentration at 0.25 h [2, 12] of 0 ng/mL, a concentration at 0.5 h [2, 12] of 0 ng/mL and a concentration at 1 h [2, 12] of 0 ng/mL. For the same compound, the concentration at 2 h [2, 12] was 1.2 ng/mL, the concentration at 4 h [2, 12] was 3.1 ng/mL and the concentration at 6 h [2, 12] was 2 ng/mL. For the same compound, the concentration at 8 h [2, 12] was 3.2 ng/mL, the concentration at 12 h [2, 12] was 2.3 ng/mL and the concentration at 24 h [2, 12] was 0 ng/mL. For the same compound, the AUC(0-inf) [2, 9] was 952 ng·h/mL, the AUC(0-t) [2, 9] was 948 ng·h/mL and the half-life [2, 9] was 1.2 h. For the same compound, the C0 [2, 10] was 4000 ng/mL, the Vd [2, 9] was 0.1 L/kg and the CI ([2]; rats, intravenous 0.25 mg/kg) was 4.4 mL/min/kg. The Fpo ([2]; rats) was 0.1%, the “inflammatory cell infiltrate in the reticular and laminar propria zones” value [3] was “marked reduction” and the “ulcer grade and epithelial repair compared to the vehicle control” value [3] was “marked improvements”. The LP inflammation [3] was 2.3 ± 0.4, the Ulcer grade [3] was 3.0 ± 0.4 and the “activity in in vivo model of colonic inflammation (histopathology analysis)” value [3] was “substantial activity”. The IC50 ([5]; CYP3A4, 0 min preincubation) was > 15 µM, the IC50 ([5]; CYP3A4, 30 min preincubation) was > 15 µM and the inhibition at 15 µM ([5]; CYP3A4, 0 min preincubation) was 3%. For the same compound, the inhibition at 15 µM ([5]; CYP3A4, 30 min preincubation) was 42%, the “KinomeScan Selectivity Score S(1)” value ([6]; 50 nM) was 0.005 and the “KinomeScan Selectivity Score S(10)” value ([6]; 50 nM) was 0.035. The “KinomeScan Selectivity Score S(35)” value ([6]; 50 nM) was 0.099, the “number of individual kinase hits, S(1)” value ([6]; 50 nM) was 2 and the “number of individual kinase hits, S(10)” value ([6]; 50 nM) was 14. For the same compound, the “number of individual kinase hits, S(35)” value ([6]; 50 nM) was 39, the “KinomeScan Selectivity Score S(1)” value ([6]; 500 nM) was 0.038 and the “KinomeScan Selectivity Score S(10)” value ([6]; 500 nM) was 0.139. For the same compound, the “KinomeScan Selectivity Score S(35)” value ([6]; 500 nM) was 0.230, the “number of individual kinase hits, S(1)” value ([6]; 500 nM) was 15 and the “number of individual kinase hits, S(10)” value ([6]; 500 nM) was 55. The “number of individual kinase hits, S(35)” value ([6]; 500 nM) was 91 and the “selectivity compared to the Reference Compound” value [6] was “substantially improved selectivities”.
